Experimental data reported in patent publication US7084146B2 (dated 2006).

O=[N+]([O-])c1ccc(-c2c(Cl)nc3ncnn3c2NCC(F)(F)F)cc1
melting point: 237 °C
